Patent publication US11376233B2 (AJOU UNIVERSITY INDUSTRY-ACADEMIC COOPERATION FOUNDATION, priority 2017, dated 2022)

Columns and labels:
catalase and SOD2 [1] = test: mRNA expression of antioxidant enzymes by quantitative real-time PCR in H2O2-treated auditory cells; assay type: cell-based; settings: pre-treated 1, 10, 25 and 50 μM for 1 hour, 250 μM H2O2 for 24 hours
Description: (§1) The mRNA expression was determined by quantitative real-time PCR after extraction of total RNA and synthesis of cDNA. Protein expression was observed by extracting total protein with RIPA buffer, separating proteins in the order of size by SDS-PAGE and then attaching catalase (catalase, Abcam, ab1877, Cambridge, UK)) and SOD2 (superoxide dismutase 2, Santa Cruz, Calif., USA) thereto.

HEI-OC1 cells [2] = test: Cytotoxicity and apoptosis caused by H2O2, WST-1 analysis; assay type: cell-based; settings: pretreatment 0.1, 1, 10 and 25 μM for 1 hour, then 500 μM H2O2 for 24 hours
Description: Auditory cell (HEI-OC1; House-Ear Institute-organ of Corti 1) lines expressing auditory genes were used, and the HEI-OC1 cells were cultured at 33° C. and under 10% CO2 in DMEM medium (Dulbecco's modified Eagle's Medium) containing a high concentration of glutamine, supplemented with 10% fetal bovine serum (FBS) and 25 U/ml of interferon gamma. A noise-induced hearing loss cell line was established through treatment with H2O2 to produce reactive oxygen species (ROS) by oxidative stress during induction of hearing loss by noise.

platelet aggregation = settings: cited from earlier work
[3] = test system: rat vascular smooth muscles; settings: in vitro; cited from earlier work
arterial thrombosis = settings: mouse vascular endothelial injury; rat polyethylene tube; cited from earlier work
catalase and SOD2 [4] = test: Protein expression of antioxidant enzymes by Western blotting in H2O2-treated auditory cells; assay type: cell-based; settings: pre-treated 1, 10, 25 and 50 μM for 1 hour, 250 μM H2O2 for 24 hours
Description: as §1

HEI-OC1 cells [5] = test: Cytotoxicity of sarpogrelate by WST-1 analysis; assay type: cell-based; settings: 0.1, 1, 10 and 25 μM for 24 hours
Description: Auditory cell (HEI-OC1; House-Ear Institute-organ of Corti 1) lines expressing auditory genes were used, and the HEI-OC1 cells were cultured at 33° C. and under 10% CO2 in DMEM medium (Dulbecco's modified Eagle's Medium) containing a high concentration of glutamine, supplemented with 10% fetal bovine serum (FBS) and 25 U/ml of interferon gamma.

[6] = test system: peripheral arterial occlusion; settings: rat, injection of lauric acid; cited from earlier work
catalase and SOD2 [7] = test: Tissue immunohistostaining of cochlea (spiral ganglia, auditory hair cells) in noise-induced hearing loss animal model; assay type: in vivo, Balb/c mice; settings: immunohistochemistry, spiral ganglia (apex, middle, base) and auditory hair cells in cochlea; pretreated 50 mg/kg
Description: Confocal Laser Scanning Microscopes and immunostaining were performed for the morphological analysis of spiral ganglia and hair cells located in the organ of Corti in the cochlea in noise-induced hearing loss animal model of Example 1. […] The animal tissues were immobilized and embedded with paraffin to obtain tissue sections. Anti-oxidation-related protein antibodies were primarily attached to the tissue sections, fluorescent antibodies were secondarily attached thereto, and immunohistochemistry was performed to analyze the expression behavior of the anti-oxidation-related proteins. The antibodies were subjected to immunohistochemistry with the antioxidant factors, catalase (Abcam, ab1877, Cambridge, UK), SOD2 (Santa Cruz, Calif., USA), and DAPI (Invitrogen, Carlsbad, Calif.).

COc1cccc(CCc2ccccc2OCC(CN(C)C)OC(=O)CCC(=O)O)c1 (stereo not drawn) [sarpogrelate, 4-[2-(dimethylamino)-1-({2-[2-(3-methoxyphenyl)ethyl]phenoxy}methyl)ethoxy]-4-oxobutanoic acid]
mRNA expression of SOD2 (catalase and SOD2 [1]): increased
mRNA expression of catalase (catalase and SOD2 [1]): increased
apoptosis of auditory cells caused by H2O2 (HEI-OC1 cells [2]): inhibiting apoptosis
platelet aggregation by collagen and secondary platelet aggregation by ADP or epinephrine (platelet aggregation): inhibited
contraction of vascular smooth muscles by serotonin [3]: inhibiting the contraction
formation of thrombus in arterial thrombosis models (arterial thrombosis): inhibit the formation of thrombus
protein expression of SOD2 (catalase and SOD2 [4]): increased
protein expression of catalase (catalase and SOD2 [4]): increased
cytotoxicity of sarpogrelate (HEI-OC1 cells [5]): not to cause cytotoxicity
onset of the condition in the peripheral arterial occlusion model [6]: inhibits the onset of the condition
expression of SOD2 (catalase and SOD2 [7]): significantly increased
expression of catalase (catalase and SOD2 [7]): significantly increased
